In patent publication US3954793A, “1-(2-Propynyl)-1 H-indazole compounds” (priority 1973, dated 1976):

How the values were obtained:
[1] = test system: Rutgers A strain house flies; experiment: topical application, percent kill after 24 hours, resistant Rutgers A strain; type: in vivo, female); conditions: for percent kill after 24 hours, with GS 13005: GS 13005 1.0 + synergist 5.0 μg/fly
Procedure, shortened: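 Synergist plus mobam, Diazinon or GS 13005 dissolved in acetone, applied as 1.0 μl to the thorax of CO2-anaesthetised 3-to-5 day old female Rutgers A (resistant) house flies; doses in μg/fly. Flies held 10 per dish, 3-5 dishes per treatment, with skim milk; mortality scored at 24 h.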

[2] = test system: IN/WHO strain house flies; experiment: topical application, percent kill after 24 hours, susceptible IN/WHO strain; type: in vivo, female); conditions: for percent kill after 24 hours, with Diazinon: Diazinon 0.03 + synergist 0.15 μg/fly; for percent kill after 24 hours, synergist alone: insecticide 0, synergist 1 μg/fly; for percent kill after 24 hours, synergist alone (GS 13005 part of Table XXXI): GS 13005 0, synergist 1 μg/fly
Procedure, shortened: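 Insecticide plus synergist in acetone, 1.0 μl applied to the thorax of CO2-anesthetized 3-to-5-day-old female IN/WHO house flies, doses in μg/fly. Flies held 10 per dish, 3-5 dishes per treatment, with skim milk. Percent mortality scored after 24 h.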

male mice = experiment: extension of sleeping time of depressant drugs by synergists; type: in vivo, male mice (Swiss albino white); conditions: for Mean Sleeping Time, Noludar / Relative Sleeping Time, Noludar: Noludar 110 mg/kg; for Relative Sleeping Time, Noludar / Relative Sleeping Time, Secobarbital: treated/control; for Mean Sleeping Time, Secobarbital / Relative Sleeping Time, Secobarbital: Secobarbital 37 mg/kg
Procedure, shortened: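 Swiss albino male mice (~38 days, 25-30 g) given synergist at 74.0 or 110.0 mg/kg in corn oil 1 h before Secobarbital 37.0 mg/kg or Noludar 110.0 mg/kg in water. Sleeping time measured from drug dosing to righting-reflex recovery; relative sleeping time = treated ÷ drug-only control.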

[3] = Mobam 0.20 + synergist 1 μg/fly
[4] = synergist 110 mg/kg one hour prior
[5] = Mobam 0.40 + synergist 2.0 μg/fly
[6] = insecticide 0, synergist 5.0 μg/fly
[7] = GS 13005 0.10 + synergist 0.50 μg/fly
[8] = synergist 74 mg/kg one hour prior
[9] = GS 13005 0.05 + synergist 0.25 μg/fly
[10] = GS 13005 0.10 + synergist 0.125 μg/fly
[11] = GS 13005 0.10 + synergist 0.25 μg/fly

C#CCOCc1c(Cl)ccc(Cl)c1Cl [II-E]
percent kill after 24 hours, with Mobam ([1]; Mobam 0.15 + synergist 0.75 μg/fly): 17% | percent kill after 24 hours, with Mobam ([1]; Mobam 0.30 + synergist 1.5 μg/fly): 70% | percent kill after 24 hours, with Mobam ([1]; Mobam 0.60 + synergist 3.0 μg/fly): 99% | percent kill after 24 hours, synergist alone ([1]; insecticide 0, synergist 7.5 μg/fly): 0% | percent kill after 24 hours, with Diazinon [2]: 45% | percent mortality 24 hours, with Mobam ([2]; Mobam 0.13 μg/fly, synergist/insecticide 0.5/1): 30% | percent mortality 24 hours, with Mobam ([2]; Mobam 0.13 μg/fly, synergist/insecticide 1/1): 27% | percent mortality 24 hours, with Mobam ([2]; Mobam 0.13 μg/fly, synergist/insecticide 2/1): 17% | percent mortality 24 hours, with Mobam ([2]; Mobam 0.13 μg/fly, synergist/insecticide 5/1): 40% | percent mortality 24 hours, with Mobam ([2]; Mobam 0.25 μg/fly, synergist/insecticide 0.5/1): 53% | percent mortality 24 hours, with Mobam ([2]; Mobam 0.25 μg/fly, synergist/insecticide 1/1): 77% | percent mortality 24 hours, with Mobam ([2]; Mobam 0.25 μg/fly, synergist/insecticide 2/1): 73% | percent mortality 24 hours, with Mobam ([2]; Mobam 0.25 μg/fly, synergist/insecticide 5/1): 67% | percent mortality 24 hours, with Mobam ([2]; Mobam 0.50 μg/fly, synergist/insecticide 0.5/1): 97% | percent mortality 24 hours, with Mobam ([2]; Mobam 0.50 μg/fly, synergist/insecticide 1/1): 97% | percent mortality 24 hours, with Mobam ([2]; Mobam 0.50 μg/fly, synergist/insecticide 2/1): 93% | percent mortality 24 hours, with Mobam ([2]; Mobam 0.50 μg/fly, synergist/insecticide 5/1): 100% | percent mortality 24 hours, with Mobam ([2]; Mobam 1.0 μg/fly, synergist/insecticide 0.5/1): 100% | percent mortality 24 hours, with Mobam ([2]; Mobam 1.0 μg/fly, synergist/insecticide 1/1): 100% | percent mortality 24 hours, with Mobam ([2]; Mobam 1.0 μg/fly, synergist/insecticide 2/1): 100% | percent mortality 24 hours, with Mobam ([2]; Mobam 1.0 μg/fly, synergist/insecticide 5/1): 100% | percent kill after 24 hours, with Mobam ([2]; Mobam 0.05 + synergist 0.25 μg/fly): 5% | percent kill after 24 hours, with Mobam ([2]; Mobam 0.10 + synergist 0.50 μg/fly): 33% | percent kill after 24 hours, with Mobam [2, 3]: 100% | percent kill after 24 hours, synergist alone [2]: 0% | Mean Sleeping Time, Noludar (male mice; [4]): 45 min | Relative Sleeping Time, Noludar (male mice; synergist 110 mg/kg): 1.1 | Mean Sleeping Time, Secobarbital (male mice; [4]): 44 min | Relative Sleeping Time, Secobarbital (male mice; synergist 110 mg/kg): 1.4

C#CCOCc1c(Cl)cccc1Cl [II-H]
percent kill after 24 hours, with GS 13005 [1]: 100% | percent kill after 24 hours, with Mobam [1, 5]: 100% | percent kill after 24 hours, synergist alone [1, 6]: 7% | percent kill after 24 hours, synergist alone (GS 13005 part of Table XXXI) [2]: 10% | percent kill after 24 hours, with GS 13005 [2, 7]: 100% | percent kill after 24 hours, with Mobam [2, 3]: 100% | percent kill after 24 hours, synergist alone [2]: 10% | Mean Sleeping Time, Noludar (male mice; [4]): 68 min | Relative Sleeping Time, Noludar (male mice; synergist 110 mg/kg): 2.2 | Mean Sleeping Time, Secobarbital (male mice; [8]): 44 min | Relative Sleeping Time, Secobarbital (male mice; synergist 74 mg/kg): 1.4 | Mean Sleeping Time, Secobarbital (male mice; [4]): 51 min | Relative Sleeping Time, Secobarbital (male mice; synergist 110 mg/kg): 2.1

C#CCOCc1c(Cl)cccc1[N+](=O)[O-] [II-K]
percent kill after 24 hours, with GS 13005 [1]: 100% | percent kill after 24 hours, with Mobam [1, 5]: 97% | percent kill after 24 hours, synergist alone [1, 6]: 0% | 24 hour percent mortality, Baygon with five parts II-K ([2]; Baygon 0.125 μg/fly, five parts synergist): 83% | 24 hour percent mortality, Bidrin with five parts II-K ([2]; Bidrin 0.063 μg/fly, five parts synergist): 0% | 24 hour percent mortality, Bidrin with five parts II-K ([2]; Bidrin 0.13 μg/fly, five parts synergist): 57% | 24 hour percent mortality, Dimetilan with five parts II-K ([2]; Dimetilan 0.031 μg/fly, five parts synergist): 7% | 24 hour percent mortality, Dimetilan with five parts II-K ([2]; Dimetilan 0.063 μg/fly, five parts synergist): 70% | 24 hour percent mortality, Dimetilan with five parts II-K ([2]; Dimetilan 0.13 μg/fly, five parts synergist): 100% | percent kill after 24 hours, synergist alone (GS 13005 part of Table XXXI) [2]: 10% | percent kill after 24 hours, with GS 13005 [2, 7]: 100% | 24 hour percent mortality, Gardona with five parts II-K ([2]; Gardona 0.031 μg/fly, five parts synergist): 63% | 24 hour percent mortality, Gardona with five parts II-K ([2]; Gardona 0.063 μg/fly, five parts synergist): 100% | 24 hour percent mortality, HRS 1422 with five parts II-K ([2]; HRS 1422 0.125 μg/fly, five parts synergist): 77% | percent kill after 24 hours, with Mobam [2, 3]: 100% | 24 hour percent mortality, Pyrolan with five parts II-K ([2]; Pyrolan 0.063 μg/fly, five parts synergist): 7% | 24 hour percent mortality, Pyrolan with five parts II-K ([2]; Pyrolan 0.13 μg/fly, five parts synergist): 40% | 24 hour percent mortality, Pyrolan with five parts II-K ([2]; Pyrolan 0.25 μg/fly, five parts synergist): 80% | percent kill after 24 hours, synergist alone [2]: 10% | Mean Sleeping Time, Noludar (male mice; [4]): 75 min | Relative Sleeping Time, Noludar (male mice; synergist 110 mg/kg): 2.4 | Mean Sleeping Time, Secobarbital (male mice; [8]): 48 min | Relative Sleeping Time, Secobarbital (male mice; synergist 74 mg/kg): 1.5 | Mean Sleeping Time, Secobarbital (male mice; [4]): 44 min | Relative Sleeping Time, Secobarbital (male mice; synergist 110 mg/kg): 2

C#CCOCc1ccccc1[N+](=O)[O-] [II-P, 2-nitrobenzyl 2-propynyl ether]
percent kill after 24 hours, with GS 13005 [1]: 92% | percent kill after 24 hours, synergist alone [1, 6]: 0% | percent kill after 24 hours, with Diazinon [2]: 30% | percent kill after 24 hours, synergist alone (GS 13005 part of Table XXXI) [2]: 0% | percent kill after 24 hours, with GS 13005 [2, 9]: 10% | percent kill after 24 hours, with GS 13005 [2, 10]: 69% | percent kill after 24 hours, with GS 13005 [2, 11]: 85% | percent kill after 24 hours, with GS 13005 [2, 7]: 96% | percent kill after 24 hours, synergist alone [2]: 0% | Mean Sleeping Time, Noludar (male mice; [4]): 44 min | Relative Sleeping Time, Noludar (male mice; synergist 110 mg/kg): 1.5 | Mean Sleeping Time, Secobarbital (male mice; [4]): 46 min | Relative Sleeping Time, Secobarbital (male mice; synergist 110 mg/kg): 1.0

C#CCOCc1ccc([N+](=O)[O-])cc1 [II-Q, 4-nitrobenzyl 2-propynyl ether]
percent kill after 24 hours, with GS 13005 [1]: 100% | percent kill after 24 hours, synergist alone [1, 6]: 0% | percent kill after 24 hours, synergist alone (GS 13005 part of Table XXXI) [2]: 0% | percent kill after 24 hours, with GS 13005 [2, 9]: 25% | percent kill after 24 hours, with GS 13005 [2, 10]: 43% | percent kill after 24 hours, with GS 13005 [2, 11]: 67% | percent kill after 24 hours, with GS 13005 [2, 7]: 90% | Mean Sleeping Time, Noludar (male mice; [4]): 41 min | Relative Sleeping Time, Noludar (male mice; synergist 110 mg/kg): 2.1 | Mean Sleeping Time, Secobarbital (male mice; [8]): 30 min | Relative Sleeping Time, Secobarbital (male mice; synergist 74 mg/kg): 1.1 | Mean Sleeping Time, Secobarbital (male mice; [4]): 73 min | Relative Sleeping Time, Secobarbital (male mice; synergist 110 mg/kg): 1.6

C#CCOCc1cccc2ccccc12 [II-R, α-napthylmethyl 2-propynyl ether]
percent kill after 24 hours, with GS 13005 [1]: 55% | percent kill after 24 hours, synergist alone [1, 6]: 0% | percent kill after 24 hours, with Diazinon [2]: 22% | percent kill after 24 hours, synergist alone (GS 13005 part of Table XXXI) [2]: 0% | percent kill after 24 hours, with GS 13005 [2, 10]: 49% | percent kill after 24 hours, with GS 13005 [2, 11]: 65% | percent kill after 24 hours, with GS 13005 [2, 7]: 68% | percent kill after 24 hours, synergist alone [2]: 0% | Mean Sleeping Time, Noludar (male mice; [4]): 49 min | Relative Sleeping Time, Noludar (male mice; synergist 110 mg/kg): 1.7 | Mean Sleeping Time, Secobarbital (male mice; [8]): 35 min | Relative Sleeping Time, Secobarbital (male mice; synergist 74 mg/kg): 1.2 | Mean Sleeping Time, Secobarbital (male mice; [4]): 96 min | Relative Sleeping Time, Secobarbital (male mice; synergist 110 mg/kg): 1.6
